One may read the IC50 as the concentration that gives 50% inhibition.

The values below come from US20120232049A1, “PYRIDINE OR PYRIMIDINE DERIVATIVE HAVING EXCELLENT CELL GROWTH INHIBITION EFFECT AND EXCELLENT ANTI-TUMOR EFFECT ON CELL STRAIN HAVING AMPLIFICATION OF HGFR GENE” (Eisai R&D Management Co., Ltd., priority 2007, published 2012).

Assay [1] deals with Human gastric cancer cells (MKN-45). Nature of the assay: Tumor proliferation inhibitory effect against human cancer cells (MKN-45), subcutaneous transplant. Type of assay: in vivo, BALB/c(nu/nu) mice. To be noted: orally twice a day, fifth day. As for the experimental part:
Human gastric cancer cells (MKN-45) were suspended in HBSS (purchased from GIBCO BRL). The cell suspension (5×10^7 cells/ml; 0.1 ml) was transplanted to the subcutaneous parts of the right flank of 7-week female BALB/c(nu/nu) mice. When the tumor volume reached 100-200 mm^3, mice were grouped so that the average of the tumor volume was equable in each group, and 0.5% methylcellulose in hydrochloric acid-glucose solution (0.1N hydrochloric acid:5% glucose solution=1:9) or a test substance suspended in dimethylsulfoxide-Tween-glucose solution (dimethylsulfoxide:Tween:5% glucose solution (containing equimolar hydrochloric acid of the test substance)=7:13:80) was orally administered to mice daily twice a day. The tumor volume was measured on the fifth day from the administration of the test substance. The long and short diameters of the tumor were measured with a caliper and the tumor volume was calculated according to the equation: 1/2×long diameter×short diameter×short diameter. The experiment was conducted in a control group (vehicle administered group) of 10 animals as well as in the test substance administered group of 5 animals. Tumor proliferation rate (%) was defined as the ration of the tumor volume of the test substance administered group to the tumor volume of control group and shown in table 9

The test system of assay [2] is SNU-5 (human gastric cancer cells). Nature of the assay: Proliferation inhibitory effect against human cancer cells, SNU-5. To be noted: SNU-5, 72 h, c-met amplified cell, 3 days, Cell Counting Kit-8. Type of assay: cell-based. As for the experimental part: (§1) Six kinds of human cancer cells are suspended in RPMI1640 medium (purchased from Sigma) containing 10% FBS, respectively. The cell suspensions (MKN-45: 1.5×10^4 cells/ml, SNU-5: 5×10^4 cells/ml, EBC-1: 3×10^4 cells/ml, MKN-74: 2.5×10^4 cells/ml, SNU-1: 2.5×10^4 cells/ml, A549: 1.5×10^4 cells/ml) were added to a cell culture 96-well plate (purchased from NUNC, product number: 167008) at 0.1 ml/well, and cultured overnight in a 5% CO2 incubator (37° C.). After the culture, 0.1 ml of a test substance diluted with RPMI1640 medium containing 10% FBS and the culture was continued for 3 days in a 5% CO2 incubator (37° C.). After the culture, 10 μl of Cell Counting Kit-8 (purchased from DOJINDO, product number: 343-07623) was added to each well and the incubation was performed for 0.5 to 3 hours in a 5% CO2 incubator (37° C.). After the incubation, absorbance of each well was measured by a plate reader MTP-500 (Corona Electric Co., Ltd.) with measurement wavelength 450 nm and reference wavelength 660 nm.
(In general: Tetrazolium dyes change colour on reduction, which living cells bring about.)

Assay [3] has as its system MKN-74 (human gastric cancer cells). Nature of the assay: Proliferation inhibitory effect against human cancer cells, MKN-74. The format is cell-based. The settings on record: MKN-74, 72 h, c-met non-amplified cell, 3 days, Cell Counting Kit-8. As for the experimental part:
as §1

Assay [4] has as its system A549 (human lung cancer cells). Nature of the assay: Proliferation inhibitory effect against human cancer cells, A549. The format is cell-based. The settings on record: A549, 72 h, c-met non-amplified cell, 3 days, Cell Counting Kit-8. The procedure: as §1
The subject of assay [5] is SNU-1 (human gastric cancer cells). Nature of the assay: Proliferation inhibitory effect against human cancer cells, SNU-1. The format is cell-based. To be noted: SNU1, 72 h, c-met non-amplified cell, 3 days, Cell Counting Kit-8. The procedure:
as §1

The test system of assay [6] is MKN-45 (human gastric cancer cells). Nature of the assay: Proliferation inhibitory effect against human cancer cells, MKN-45. The format is cell-based. The settings on record: MKN-45, 72 h, c-met amplified cell, 3 days, Cell Counting Kit-8. As for the experimental part:
as §1

Assay [7] has as its system EBC-1 (human lung cancer cells). Nature of the assay: Proliferation inhibitory effect against human cancer cells, EBC-1. The settings on record: EBC-1, 72 h, c-met amplified cell, 3 days, Cell Counting Kit-8. Type of assay: cell-based. The procedure:
as §1

The mark [8] stands for this setting: 12.5 mg/kg weight/administration.
Setting [9] is: 100 mg/kg weight/administration.

Each structure is given as a SMILES string.

Turning to `CN1CCN(C2CCN(C(=O)Nc3cc(Oc4cc(F)c(NC(=O)C5(C(=O)Nc6ccc(F)cc6)CC5)cc4F)ccn3)CC2)CC1` [Example 92, N-(2,5-Difluoro-4-{[2-({[4-(4-methylpiperazin-1-yl)piperidin-1-yl]carbonyl}amino)pyridin-4-yl]oxy}phenyl)-N′-(4-fluorophenyl)cyclopropane-1,1-dicarboxamide], in assay [1] (setting [8]), the “tumor proliferation rate(%)” value was determined as 27.9%. The IC50 in assay [2] is 1.7 nM; in assay [3] it was 2000 nM; in assay [4], 2900 nM; in assay [5], 2300 nM; in assay [6] it was 3.8 nM; in assay [7], 3.8 nM.
For the molecule `O=C(Nc1cc(Oc2ccc(NC(=O)C3(C(=O)Nc4ccc(F)cc4)CC3)c(F)c2)ccn1)N1CCC1` [Example 61, N-[4-({2-[(Azetidin-1-ylcarbonyl)amino]pyridin-4-yl}oxy)-2-fluorophenyl]-N′-(4-fluorophenyl)cyclopropane-1,1-dicarboxamide], the “tumor proliferation rate(%)” value in assay [1] (setting [8]) was found to be 35.8%. The IC50 in assay [2] is 38 nM; in assay [3], 4200 nM; in assay [4], over 10000 nM; in assay [5], over 10000 nM; in assay [6], 60 nM; in assay [7] it was 65 nM.
Consider `O=C(Nc1cc(Oc2cc(F)c(NC(=O)C3(C(=O)Nc4ccc(F)cc4)CC3)cc2F)ccn1)N1CC(O)C1` [Example 91, N-{2,5-Difluoro-4-[(2-{([3-hydroxyazetidin-1-yl)carbonyl]amino}pyridin-4-yl)oxy]phenyl}-N′-(4-fluorophenyl)cyclopropane-1,1-dicarboxamide], for which the “tumor proliferation rate(%)” value in assay [1] (1 mg/kg weight/administration) came to 73.0%; in assay [1] (3 mg/kg weight/administration) it was 55.5%; in assay [1] (10 mg/kg weight/administration), 27.4%; in assay [1] (setting [8]), 22.9%; in assay [1] (30 mg/kg weight/administration) it was 19.6%; in assay [1] (setting [9]), 16.0%. For the same molecule, the IC50 in assay [2] was found to be 6 nM; in assay [3] it was 3000 nM; in assay [4], 1900 nM; in assay [5], 2000 nM; in assay [6] it was 6 nM; in assay [7] it was 6.4 nM.
`CN1CCN(C2CCN(C(=O)Nc3cc(Oc4ccc(NC(=O)C5(C(=O)Nc6ccc(F)cc6)CC5)c(F)c4)ccn3)CC2)CC1` [Example 15, N-(2-Fluoro-4-{[2-({[4-(4-methylpiperazin-1-yl)piperidin-1-yl]carbonyl}amino)pyridin-4-yl]oxy}phenyl)-N-(4-fluorophenyl)cyclopropane-1,1-dicarboxamide]: the “tumor proliferation rate(%)” value is 29.7% in assay [1] (30 mg/kg weight/administration) and 19.9% in assay [1] (setting [9]). Besides, the IC50 in assay [2] came to 6.2 nM; in assay [3], 4300 nM; in assay [4], 2600 nM; in assay [5] it was 4200 nM; in assay [6] it was 15 nM; in assay [7], 17 nM.
As for `O=C(Nc1cc(Oc2cc(F)c(NC(=O)C3(C(=O)Nc4ccc(F)cc4)CC3)cc2F)ccn1)N1CC(CO)C1` [Example 96, N-(2,5-Difluoro-4-{[2-({[3-(hydroxymethyl)azetidin-1-yl]carbonyl}amino)pyridin-4-yl]oxy}phenyl)-N′-(4-fluorophenyl)cyclopropane-1,1-dicarboxamide], the IC50 was found to be 4.9 nM in assay [2]; 3300 nM in assay [3]; 2000 nM in assay [4]; 3600 nM in assay [5]; 4.7 nM in assay [6]; 4.5 nM in assay [7].
`CN1CCC(N(C)C(=O)Nc2cc(Oc3cc(F)c(NC(=O)C4(C(=O)Nc5ccc(F)cc5)CC4)cc3F)ccn2)CC1` [Example 94, N-(2,5-Difluoro-4-{[2-({[methyl(1-methylpiperidin-4-yl)amino]carbonyl}amino)pyridin-4-yl]oxy}phenyl)-N′-(4-fluorophenyl)cyclopropane-1,1-dicarboxamide]: the IC50 turned out to be 1.7 nM in assay [2]; 1900 nM in assay [3]; 1800 nM in assay [4]; 1600 nM in assay [5]; 2.3 nM in assay [6]; 2.4 nM in assay [7].
